Results reported in patent US8952034B2, “Fused heterocyclic compounds as ion channel modulators” (Gilead Sciences, Inc., priority 2009, dated 2015).

Target: wild-type human cardiac sodium channel, hNav1.5 (Homo sapiens, UniProt Q14524)
Test: Late INa screening assay (automated whole cell patch clamp, PatchXpress)
Assay type: cell-based
Conditions: HEK293 cells expressing hNav1.5, late INa generated with 10 μM Tefluthrin (or 50 nM ATX II); for inhibition at 10 µM: compound at 10 μM, read-out: LateINa_10 uM (percent block of late INa); for inhibition at 1 µM: compound at 1 μM, read-out: LateINa_1 uM (percent block of late INa)
Description: The late sodium current (Late INa) and peak sodium current (Peak INa) assays are performed on an automated electrophysiology platform, PatchXpress 7000A (MDS Analytical Technologies, Sunnyvale, Calif.), which uses the whole cell patch clamp technique to measure currents through the cell membrane of up to 16 cells at a time. The assay uses an HEK293 (human embryonic kidney) cell line heterologously expressing the wild-type human cardiac sodium channel, hNav1.5, purchased from Millipore (Billerica, Mass.). No beta subunits were coexpressed with the Na channel alpha subunit. Cells are maintained with standard tissue culture procedures and stable channel expression is maintained with 400 μg/ml Geneticin in the culture medium. […] Experiments are carried out at 24-27° C.
For both the Late INa and Peak INa assays, series resistance compensation is set to 50% and whole-cell compensation is performed automatically. […] Currents through open sodium channels are automatically recorded and stored in the DataXpress2 database (MDS Analytical Technologies, Sunnyvale, Calif.). Analysis is performed using DataXpress2 analysis software and data are compiled in Excel.
Compound stocks are routinely made in glass vials to 10 mM in dimethyl sulfoxide (DMSO). In some cases, when compounds are not soluble in DMSO, they are made in 100% ethanol. Stocks are sonicated as necessary. The extracellular solution for screening Late INa is composed of: 140 mM NaCl, 4 mM KCl, 1.8 mM CaCl2, 0.75 mM MgCl2, and 5 mM HEPES with pH adjusted to 7.4 using NaOH. The extracellular solution for screening Peak INa is composed of: 20 mM NaCl, 120 mM N-methyl-D glucamine, 4 mM KCl, 1.8 mM CaCl2, 0.75 mM MgCl2, and 5 mM HEPES with pH adjusted to 7.4 using HCl. The intracellular solution used to perfuse the inside of the cells for both the Late INa and Peak INa assays contains: 120 mM CsF, 20 mM CsCl, 5 mM EGTA, 5 mM HEPES and pH adjusted to 7.4 with CsOH. […] The 0Na extracellular solution used at the end of each experiment for the Late INa and Peak INa assays to measure baseline current contains: 140 mM N-methyl-D-glucamine; 4 mM KCl; 1.8 mM CaCl2; 0.75 mM MgCl2; 5 mM HEPES and pH was adjusted to 7.4 with HCl.
For the Late INa assay, sodium channels are activated every 10 seconds (0.1 Hz) by depolarizing the cell membrane to −20 mV for 250 milliseconds (ms) from a holding potential of −120 mV. In response to a −20 mV voltage step, typical Nav1.5 sodium currents activate rapidly to a peak negative current and then inactivate nearly completely within […].
All compounds are tested to determine their activity in blocking the late sodium current. Late INa current is generated by adding 10 μM Tefluthrin (pyrethroid) to the extracellular solution while recording Na currents For some experiments, 50 nM ATX II (sea anemone toxin), another late INa activator, was used to generate the late component. […] After establishing the whole cell recording configuration, late INa activators are added to each well 4 times over a 16-17 minute period so that the late component of the Na current reaches a stable value. […] Measurements are made at the end of exposure to the third compound addition and values are normalized to the current level when all Na^+ is removed from the extracellular solution after two additions of 0Na-ECF. Results are reported as percent block of late INa

wild-type human cardiac sodium channel, hNav1.5, sequence (Q14524 whole entry): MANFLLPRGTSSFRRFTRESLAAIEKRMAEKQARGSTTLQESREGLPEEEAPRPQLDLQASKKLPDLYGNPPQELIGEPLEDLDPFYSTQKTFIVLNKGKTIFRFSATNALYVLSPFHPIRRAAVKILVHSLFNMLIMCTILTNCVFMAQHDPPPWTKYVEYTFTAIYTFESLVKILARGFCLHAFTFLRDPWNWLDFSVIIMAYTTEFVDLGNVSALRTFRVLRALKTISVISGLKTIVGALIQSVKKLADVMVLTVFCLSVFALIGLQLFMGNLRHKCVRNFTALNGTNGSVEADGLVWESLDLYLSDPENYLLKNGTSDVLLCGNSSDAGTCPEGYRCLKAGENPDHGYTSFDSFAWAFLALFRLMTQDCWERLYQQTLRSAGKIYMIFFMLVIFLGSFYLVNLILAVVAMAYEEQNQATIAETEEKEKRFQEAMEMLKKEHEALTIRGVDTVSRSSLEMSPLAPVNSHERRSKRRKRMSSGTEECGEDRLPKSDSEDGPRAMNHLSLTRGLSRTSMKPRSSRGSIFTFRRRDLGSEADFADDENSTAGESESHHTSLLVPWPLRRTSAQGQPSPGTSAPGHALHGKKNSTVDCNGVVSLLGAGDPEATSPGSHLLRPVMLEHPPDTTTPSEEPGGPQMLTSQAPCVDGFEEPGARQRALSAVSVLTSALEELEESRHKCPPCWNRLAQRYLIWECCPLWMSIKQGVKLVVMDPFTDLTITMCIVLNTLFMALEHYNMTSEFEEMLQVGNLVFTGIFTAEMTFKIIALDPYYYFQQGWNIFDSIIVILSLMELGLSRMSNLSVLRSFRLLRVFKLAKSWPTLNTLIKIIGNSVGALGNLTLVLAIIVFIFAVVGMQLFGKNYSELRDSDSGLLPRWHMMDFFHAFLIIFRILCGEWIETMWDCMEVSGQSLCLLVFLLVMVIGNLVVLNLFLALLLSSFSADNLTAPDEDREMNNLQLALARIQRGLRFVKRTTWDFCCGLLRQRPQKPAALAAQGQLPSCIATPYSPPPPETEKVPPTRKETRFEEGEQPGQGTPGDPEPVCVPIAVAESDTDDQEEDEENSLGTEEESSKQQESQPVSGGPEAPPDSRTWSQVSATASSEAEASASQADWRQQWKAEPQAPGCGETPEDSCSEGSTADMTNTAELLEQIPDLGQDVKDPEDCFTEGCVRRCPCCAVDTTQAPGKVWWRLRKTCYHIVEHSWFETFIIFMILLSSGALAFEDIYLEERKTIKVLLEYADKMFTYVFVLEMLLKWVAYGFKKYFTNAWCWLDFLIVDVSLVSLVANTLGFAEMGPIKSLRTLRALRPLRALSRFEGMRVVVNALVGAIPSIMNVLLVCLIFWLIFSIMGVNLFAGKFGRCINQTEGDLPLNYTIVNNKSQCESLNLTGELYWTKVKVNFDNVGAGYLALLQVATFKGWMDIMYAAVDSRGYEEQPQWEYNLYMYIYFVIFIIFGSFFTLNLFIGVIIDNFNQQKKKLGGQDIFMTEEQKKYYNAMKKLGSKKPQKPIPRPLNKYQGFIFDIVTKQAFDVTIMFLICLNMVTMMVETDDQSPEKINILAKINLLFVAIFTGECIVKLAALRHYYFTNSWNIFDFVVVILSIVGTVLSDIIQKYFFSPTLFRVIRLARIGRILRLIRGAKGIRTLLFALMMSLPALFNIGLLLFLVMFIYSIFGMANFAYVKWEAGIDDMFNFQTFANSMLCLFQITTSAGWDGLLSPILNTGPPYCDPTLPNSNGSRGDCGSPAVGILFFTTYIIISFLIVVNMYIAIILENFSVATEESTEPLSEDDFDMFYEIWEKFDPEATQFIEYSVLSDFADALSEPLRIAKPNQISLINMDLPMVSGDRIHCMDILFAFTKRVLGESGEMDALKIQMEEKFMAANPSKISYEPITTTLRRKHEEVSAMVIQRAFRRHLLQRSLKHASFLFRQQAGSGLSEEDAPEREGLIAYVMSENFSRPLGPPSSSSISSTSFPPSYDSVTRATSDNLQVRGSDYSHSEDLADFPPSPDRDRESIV

Row | SMILES | inhibition at 10 µM | inhibition at 1 µM
1 | FC(F)(F)c1ncc2ccc(-c3ccc(Oc4ccccc4)cc3)cn12 [BHN-7, 6-(4-phenoxyphenyl)-3-(trifluoromethyl)imidazo[1,5-a]pyridine] | 55.4% | –
2 | FC(F)(F)c1nnc2ccc(-c3cccc(Oc4ccccc4)c3)cn12 [BHN-9, 6-(3-phenoxyphenyl)-3-(trifluoromethyl)[1,2,4]triazolo[4,3-a]pyridine] | 75.7% | 29.6%
3 | FC(F)(F)c1cc(-c2ccc3nnc(C(F)(F)F)n3c2)ccc1Cl [BHN-10, 6-[4-chloro-3-(trifluoromethyl)phenyl]-3-(trifluoromethyl)[1,2,4]triazolo[4,3-a]pyridine] | 51.2% | –
4 | FC(F)(F)c1nnc2ccc(-c3ccc(Oc4ccccc4)cc3)nn12 [BHN-11, 6-(4-phenoxyphenyl)-3-(trifluoromethyl)[1,2,4]triazolo[4,3-b]pyridazine] | 44.7% | –
5 | FC(F)c1nnc2ccc(-c3ccc(OC(F)(F)F)cc3)nn12 [BHN-12, 3-(difluoromethyl)-6-[4-(trifluoromethoxy)phenyl][1,2,4]triazolo[4,3-b]pyridazine] | 79.7% | 39.6%
6 | FC(F)c1nnc2ccc(-c3ccc(Oc4ccccc4)cc3)nn12 [BHN-13, 3-(difluoromethyl)-6-(4-phenoxyphenyl)[1,2,4]triazolo[4,3-b]pyridazine] | 87.1% | 44.8%
7 | Fc1cc(-c2ccc3nnc(C(F)(F)F)n3c2)ccc1Cl [BHN-14, 6-(4-chloro-3-fluorophenyl)-3-(trifluoromethyl)[1,2,4]triazolo[4,3-a]pyridine] | 28.3% | –
8 | FC(F)(F)c1nnc2cnc(-c3ccc(Oc4ccccc4)cc3)cn12 [BHN-16, 6-(4-phenoxyphenyl)-3-(trifluoromethyl)[1,2,4]triazolo[4,3-a]pyrazine] | 54.3% | –
9 | Cc1cc2nnc(C(F)(F)F)n2cc1-c1cccc(OC(F)(F)F)c1 [BHN-17, 7-methyl-6-[3-(trifluoromethoxy)phenyl]-3-(trifluoromethyl)[1,2,4]triazolo[4,3-a]pyridine] | 25.3% | –
10 | FC(F)c1nnc2cnc(-c3ccc(Oc4ccccc4)cc3)cn12 [BHN-18, 3-(difluoromethyl)-6-(4-phenoxyphenyl)[1,2,4]triazolo[4,3-a]pyrazine] | 54.6% | –
11 | O=C(O)Cc1nnc2ccc(-c3ccc(OC(F)(F)F)cc3)cn12 [BHN-19, {6-[4-(trifluoromethoxy)phenyl][1,2,4]triazolo[4,3-a]pyridin-3-yl}acetic acid] | 35.4% | –
12 | FC(F)(F)Oc1ccc(-c2ccc3nnc(-c4ccccc4)n3c2)cc1 [BHN-21, 3-phenyl-6-[4-(trifluoromethoxy)phenyl][1,2,4]triazolo[4,3-a]pyridine] | 86.5% | 65.2%
13 | c1ccc(Oc2ccc(-c3ccc4nncn4n3)cc2)cc1 [BHN-22, 6-(4-phenoxyphenyl)[1,2,4]triazolo[4,3-b]pyridazine] | 59% | –
14 | FC(F)c1nnc2cnc(-c3ccc(OC(F)(F)F)cc3)cn12 [BHN-23, 3-(difluoromethyl)-6-[4-(trifluoromethoxy)phenyl][1,2,4]triazolo[4,3-a]pyrazine] | 74.7% | 53.5%
15 | FC(F)(F)Oc1ccc(-c2ccc3nncn3n2)cc1 [BHN-25, 6-[4-(trifluoromethoxy)phenyl][1,2,4]triazolo[4,3-b]pyridazine] | 39% | –
16 | Cc1cc(OC(F)(F)F)ccc1-c1ccc2nnc(C(F)(F)F)n2n1 [BHN-26, 6-[2-methyl-4-(trifluoromethoxy)phenyl]-3-(trifluoromethyl)[1,2,4]triazolo[4,3-b]pyridazine] | 75.3% | 64.4%
17 | FC(F)(F)COc1ccc(-c2ccc3cnc(C(F)(F)F)n3c2)cc1 [BHN-28, 6-[4-(2,2,2-trifluoroethoxy)phenyl]-3-(trifluoromethyl)imidazo[1,5-a]pyridine] | 78.3% | 46.1%

Row | SMILES | inhibition at 10 µM | inhibition at 1 µM
18 | COc1ccc(-c2ccc3cnc(C(F)(F)F)n3c2)cc1 [BHN-30, 6-(4-methoxyphenyl)-3-(trifluoromethyl)imidazo[1,5-a]pyridine] | 77.3% | 24.6%
19 | FC(F)(F)Cc1nnc2ccc(-c3ccc(Oc4ccccc4)cc3)nn12 [BHN-31, 6-(4-phenoxyphenyl)-3-(2,2,2-trifluoroethyl)[1,2,4]triazolo[4,3-b]pyridazine] | 82.6% | 57.5%
20 | CC(C)c1nnc2ccc(-c3ccc(Oc4ccccc4)cc3)nn12 [BHN-32, 6-(4-phenoxyphenyl)-3-(propan-2-yl)[1,2,4]triazolo[4,3-b]pyridazine] | 83.4% | 63.4%
21 | Cc1cc(OC(F)(F)F)ccc1-c1ccc2nnc(C(C)C)n2n1 [BHN-33, 6-[2-methyl-4-(trifluoromethoxy)phenyl]-3-(propan-2-yl)[1,2,4]triazolo[4,3-b]pyridazine] | 75.9% | 59.2%
22 | FC(F)(F)Oc1ccc(-c2ccc3c(-c4ccccc4)nc(C(F)(F)F)n3c2)cc1 [BHN-34, 1-phenyl-6-[4-(trifluoromethoxy)phenyl]-3-(trifluoromethyl)imidazo[1,5-a]pyridine] | 33.4% | –
23 | CC(C)(C)c1nnc2ccc(-c3ccc(Oc4ccccc4)cc3)nn12 [BHN-35, 3-tert-butyl-6-(4-phenoxyphenyl)[1,2,4]triazolo[4,3-b]pyridazine] | 68.6% | –
24 | CC(C)(C)c1nnc2ccc(-c3ccc(OCC(F)(F)F)cc3)nn12 [BHN-36, 3-tert-butyl-6-[4-(2,2,2-trifluoroethoxy)phenyl][1,2,4]triazolo[4,3-b]pyridazine] | 64.5% | –
25 | CCc1nnc2ccc(-c3ccc(Oc4ccccc4)cc3)nn12 [BHN-38, 3-ethyl-6-(4-phenoxyphenyl)[1,2,4]triazolo[4,3-b]pyridazine] | 79.3% | 54.5%
26 | c1ccc(Oc2ccc(-c3ccc4nnc(C5CC5)n4n3)cc2)cc1 [BHN-39, 3-cyclopropyl-6-(4-phenoxyphenyl)[1,2,4]triazolo[4,3-b]pyridazine] | 74.3% | 44.4%
27 | N#Cc1ccc(-c2nnc3ccc(-c4ccc(Oc5ccccc5)cc4)nn23)cc1 [BHN-40, 4-[6-(4-phenoxyphenyl)[1,2,4]triazolo[4,3-b]pyridazin-3-yl]benzonitrile] | 38.2% | –
28 | Cc1cc(OC(F)(F)F)ccc1-c1ccc2nnc(-c3ccc(C#N)cc3)n2n1 [BHN-41, 4-{6-[2-methyl-4-(trifluoromethoxy)phenyl][1,2,4]triazolo[4,3-b]pyridazin-3-yl}benzonitrile] | 59.1% | –
29 | N#Cc1ccc(-c2nnc3ccc(-c4ccc(OC(F)(F)F)cc4)nn23)cc1 [BHN-42, 4-{6-[4-(trifluoromethoxy)phenyl][1,2,4]triazolo[4,3-b]pyridazin-3-yl}benzonitrile] | 43.8% | –
30 | Cn1cc(-c2nnc3ccc(-c4ccc(Oc5ccccc5)cc4)nn23)cn1 [BHN-43, 3-(1-methyl-1H-pyrazol-4-yl)-6-(4-phenoxyphenyl)[1,2,4]triazolo[4,3-b]pyridazine] | 25.2% | –
31 | COc1ccc(-c2ccc3nnc(-c4ccc(C#N)cc4)n3n2)cc1 [BHN-44, 4-[6-(4-methoxyphenyl)[1,2,4]triazolo[4,3-b]pyridazin-3-yl]benzonitrile] | 15% | –
32 | COc1ccc(-c2ccc3nnc(-c4cccc(C#N)c4)n3n2)cc1 [BHN-45, 3-[6-(4-methoxyphenyl)[1,2,4]triazolo[4,3-b]pyridazin-3-yl]benzonitrile] | 36.3% | –
33 | COC(=O)c1ccc(-c2ccc3nnc(C(F)(F)F)n3c2)cc1 [BHN-46, methyl 4-[3-(trifluoromethyl)[1,2,4]triazolo[4,3-a]pyridin-6-yl]benzoate] | 53.9% | –
